Test results: patent US6979684B1, “Pyrrolo[2,1-c][1,4]benzodiazepine-napthalimide conjugates linked through piperazine moiety and process for preparation thereof” (Council of Scientific and Industrial Research, priority 2004, dated 2005)

Key:
[1] = tested on: HCT-15; assay: In vitro cytotoxicity (SRB), percentage growth inhibition, HCT-15; assay type: cell-based, human; settings: HCT-15 (colon), 48 hours
Experimental: (§1) In vitro cytotoxicity against human cancer cell lines: The human cancer cell lines procured from National Cancer Institute, Frederick, U.S.A or National Center for Cell Science; Pune, India. were used in present study. Cells were grown in tissue culture flasks in complete growth medium (RPMI-1640 medium with 2 mM glutamine, 100 μg/ml streptomycin, pH 7.4, sterilized by filtration and supplemented with 10% fetal calf serum and 100 units/ml penicillin before use) at 37° C. in an atmosphere of 5% CO2 and 90% relative humidity in a carbon dioxide incubator. The cells at subconfluent stage were harvested from the flask by treatment with trypsin (0.5% in PBS containing 0.02% EDTA) for determination of cytotoxicity. Cells with viability of more than 98% as determined by trypan blue exclusion were used for assay. The cell suspension of the required cell density were prepared in complete growth medium with gentamycin (50 μg/ml) for determination of cytotoxicity.
(§2) A stock solutions of (2×10^−2 M) of test material were prepared in DMSO. The stock solutions were serially diluted with complete growth medium containing 50 μg/ml of gentamycin to obtain working test solutions of required concentrations.
(§3) In vitro cytotoxicity against human cancer cell lines was determined (Monks, A., Scudiero, D., Skehan, P, Shoemaker R., Paull, K., Vistica, D., Hose, C., Langley, J., Cronise, P., Vaigro-Wolff, A., Gray-Goodrich, M., Campbell, H., Mayo, J and Boyd M. J. Natl. Cancer Inst., 1991, 83, 757–766) using 96-well tissue culture plates. The 100 μl of cell suspension was added to each well of the 96-well tissue culture plate. The cells were incubated for 24 hours. Test materials in complete growth medium (100 μl) were added after 24 hours incubation to the wells containing cell suspension. The plates were further incubated for 48 hours (at 37° C. in an atmosphere of […] 90% relative humidity in a carbon dioxide incubator) after addition of test material and then the cell growth was stopped by gently layering trichloroacetic acid (TCA, 50 μl, 50%) on top of the medium in all the wells. The plates were incubated at 4° C. for one hour to fix the cells attached to the bottom of the wells. The liquid of all the wells was gently pipetted out and discarded. The plates were washed five times with distilled water to remove TCA, growth medium low molecular weight metabolites, serum proteins etc and air-dried. Cell growth was measured by staining with sulforhodamine B dye (Skehan et al., 1990). The adsorbed dye was dissolved in Tris-Buffer ([…], 0.01 M, pH 10.4) and plates were gently stirred for 5 minutes on a mechanical stirrer. The optical density was recorded on ELISA reader at 540 nm.
(§4) The cell growth was calculated by subtracting mean OD value of respective blank from the mean OD value of experimental set. Percent growth in presence of test material was calculated considering the growth in absence of any test material as 100% and in turn percent growth inhibition in presence of test material will be calculated.

[2] = tested on: CT-DNA; assay: DNA Thermal Denaturation Studies; assay type: binding; settings: 1:5 [PBD]/[DNA], CT-DNA 100 μM, ligand 20 μM, sodium phosphate buffer pH 7.00, values ±0.1–0.2° C.; for Induced […]Tm ° C. after incubation at 37° C. 0 h: 0 h at 37° C.; for Induced […]Tm ° C. after incubation at 37° C. 18 h: 18 h at 37° C.
Experimental: For CT-DNA alone at pH 7.00±0.01, Tm=69.8° C.±0.01 (mean value from 10 separate determinations), all ΔTm values are ±0.1–0.2° C. For a 1:5 molar ratio of [PBD]/[DNA], where CT-DNA concentration=100 μM and ligand concentration=20 μM in aqueous sodium phosphate buffer [10 mM sodium phosphate+1 mM EDTA, pH 7.00±0.01].

[3] = tested on: HOP-62; assay: In vitro cytotoxicity (SRB), percentage growth inhibition, HOP-62; assay type: cell-based, human; settings: HOP-62 (lung), 48 hours
Experimental: as §1, §2, §3, §4

[4] = tested on: A-549; assay: In vitro cytotoxicity (SRB), percentage growth inhibition, A-549; assay type: cell-based, human; settings: A-549 (lung), 48 hours
Experimental: as §1, §2, §3, §4

[5] = tested on: SiHa; assay: In vitro cytotoxicity (SRB), percentage growth inhibition, SiHa; assay type: cell-based, human; settings: SiHa (cervix), 48 hours
Experimental: as §1, §2, §3, §4

[6] = tested on: HT-29; assay: In vitro cytotoxicity (SRB), percentage growth inhibition, HT-29; assay type: cell-based, human; settings: HT-29 (colon), 48 hours
Experimental: as §1, §2, §3, §4

## COc1cc2c(cc1OCCCN1CCN(CCN3C(=O)c4cccc5cccc(c45)C3=O)CC1)N=C[C@@H]1CCCN1C2=O [VIIIb, 7-Methoxy-8-{3-[4-[2-(1,3-dioxo-benz[de]isoquinolin-2-yl)ethyl]piperazin-1-yl]propyl}-oxy-(11aS)-1,2,3,11a tetrahydro-5H-pyrrolo[2,1-c][1,4]benzodiazepin-5-one]
[1]; 10^−5 mol/L
  percentage growth inhibition HCT-15: 59%
[1]; 10^−6 mol/L
  percentage growth inhibition HCT-15: 58%
[2]
  Induced […]Tm ° C. after incubation at 37° C. 0 h: 25.8 °C
  Induced […]Tm ° C. after incubation at 37° C. 18 h: 26.7 °C
[3]; 10^−5 mol/L
  percentage growth inhibition HOP-62: 86%
[3]; 10^−6 mol/L
  percentage growth inhibition HOP-62: 72%
[4]; 10^−4 mol/L
  percentage growth inhibition A-549: 88%
[5]; 10^−5 mol/L
  percentage growth inhibition SiHa: 44%
[5]; 10^−6 mol/L
  percentage growth inhibition SiHa: 54%
[6]; 10^−4 mol/L
  percentage growth inhibition HT-29: 88%
[6]; 10^−5 mol/L
  percentage growth inhibition HT-29: 85%
[6]; 10^−6 mol/L
  percentage growth inhibition HT-29: 91%

## COc1cc2c(cc1OCCCN1CCN(CCCN3C(=O)c4cccc5cccc(c45)C3=O)CC1)N=C[C@@H]1CCCN1C2=O [VIIId, 7-Methoxy-8-{3-[4-[3-(1,3-dioxo-benz[de]isoquinolin-2-yl)propyl]piperazin-1-yl]propyl}-oxy-(11aS)-1,2,3,11a tetrahydro-5H-pyrrolo[2,1-c][1,4]benzodiazepin-5-one]
[2]
  Induced […]Tm ° C. after incubation at 37° C. 0 h: 13.1 °C
  Induced […]Tm ° C. after incubation at 37° C. 18 h: 14.3 °C
[3]; 10^−4 mol/L
  percentage growth inhibition HOP-62: 78%
[4]; 10^−4 mol/L
  percentage growth inhibition A-549: 95%
[4]; 10^−5 mol/L
  percentage growth inhibition A-549: 30%
[4]; 10^−6 mol/L
  percentage growth inhibition A-549: 51%
[5]; 10^−4 mol/L
  percentage growth inhibition SiHa: 85%
[5]; 10^−5 mol/L
  percentage growth inhibition SiHa: 65%
[5]; 10^−6 mol/L
  percentage growth inhibition SiHa: 31%
[6]; 10^−4 mol/L
  percentage growth inhibition HT-29: 95%
[6]; 10^−5 mol/L
  percentage growth inhibition HT-29: 62%
[6]; 10^−6 mol/L
  percentage growth inhibition HT-29: 63%

## COc1cc2c(cc1OCCCCN1CCN(CCN3C(=O)c4cccc5cccc(c45)C3=O)CC1)N=C[C@@H]1CCCN1C2=O [VIIIc, 7-Methoxy-8-{4-[4-[2-(1,3-dioxo-benz[de]isoquinolin-2-yl)ethyl]piperazin-1-yl]butyl}-oxy-(11aS)-1,2,3,11a tetrahydro-5H-pyrrolo[2,1-c][1,4]benzodiazepin-5-one]
[1]; 10^−5 mol/L
  percentage growth inhibition HCT-15: 69%
[1]; 10^−6 mol/L
  percentage growth inhibition HCT-15: 60%
[2]
  Induced […]Tm ° C. after incubation at 37° C. 0 h: 23.4 °C
  Induced […]Tm ° C. after incubation at 37° C. 18 h: 24.2 °C
[3]; 10^−5 mol/L
  percentage growth inhibition HOP-62: 93%
[3]; 10^−6 mol/L
  percentage growth inhibition HOP-62: 86%
[4]; 10^−4 mol/L
  percentage growth inhibition A-549: 95%
[5]; 10^−4 mol/L
  percentage growth inhibition SiHa: 56%
[5]; 10^−5 mol/L
  percentage growth inhibition SiHa: 39%
[6]; 10^−4 mol/L
  percentage growth inhibition HT-29: 94%
[6]; 10^−5 mol/L
  percentage growth inhibition HT-29: 86%
[6]; 10^−6 mol/L
  percentage growth inhibition HT-29: 80%

## COc1cc2c(cc1OCCCCN1CCN(CCCCN3C(=O)c4cccc5cccc(c45)C3=O)CC1)N=C[C@@H]1CCCN1C2=O [VIIIe, 7-Methoxy-8-{4-[4-[4-(1,3-dioxo-benz[de]isoquinolin-2-yl)butyl]piperazin-1-yl]butyl}-oxy-(11aS)-1,2,3,11a tetrahydro-5H-pyrrolo[2,1-c][1,4]benzodiazepin-5-one]
[1]; 10^−5 mol/L
  percentage growth inhibition HCT-15: 62%
[1]; 10^−6 mol/L
  percentage growth inhibition HCT-15: 59%
[2]
  Induced […]Tm ° C. after incubation at 37° C. 0 h: 20.9 °C
  Induced […]Tm ° C. after incubation at 37° C. 18 h: 21.7 °C
[3]; 10^−5 mol/L
  percentage growth inhibition HOP-62: 93%
[3]; 10^−6 mol/L
  percentage growth inhibition HOP-62: 80%
[4]; 10^−4 mol/L
  percentage growth inhibition A-549: 93%
[5]; 10^−4 mol/L
  percentage growth inhibition SiHa: 42%
[5]; 10^−5 mol/L
  percentage growth inhibition SiHa: 40%
[5]; 10^−6 mol/L
  percentage growth inhibition SiHa: 44%
[6]; 10^−4 mol/L
  percentage growth inhibition HT-29: 92%
[6]; 10^−5 mol/L
  percentage growth inhibition HT-29: 78%
[6]; 10^−6 mol/L
  percentage growth inhibition HT-29: 67%

## COc1cc2c(cc1O)N=CC1CCCN1C2=O (centres unmarked) [DC-81, reference compound]
[2]
  Induced […]Tm ° C. after incubation at 37° C. 0 h: 0.3 °C
  Induced […]Tm ° C. after incubation at 37° C. 18 h: 0.7 °C

## COc1cc2c(cc1OCCN1CCN(CCN3C(=O)c4cccc5cccc(c45)C3=O)CC1)N=C[C@@H]1CCCN1C2=O [VIIIa, 7-Methoxy-8-{2-[4-[2-(1,3-dioxo-benz[de]isoquinolin-2-yl)ethyl]piperazin-1-yl]ethyl}-oxy-(11aS)-1,2,3,11a tetrahydro-5H-pyrrolo[2,1-c][1,4]benzodiazepin-5-one]
[2]
  Induced […]Tm ° C. after incubation at 37° C. 0 h: 21.9 °C
  Induced […]Tm ° C. after incubation at 37° C. 18 h: 22.7 °C
